Target: T1, human PAH with the R408W mutation (Homo sapiens, UniProt P00439, R408W)
T1 construct: expressed in transfected cells
T1 sequence (P00439 1-452 R408W): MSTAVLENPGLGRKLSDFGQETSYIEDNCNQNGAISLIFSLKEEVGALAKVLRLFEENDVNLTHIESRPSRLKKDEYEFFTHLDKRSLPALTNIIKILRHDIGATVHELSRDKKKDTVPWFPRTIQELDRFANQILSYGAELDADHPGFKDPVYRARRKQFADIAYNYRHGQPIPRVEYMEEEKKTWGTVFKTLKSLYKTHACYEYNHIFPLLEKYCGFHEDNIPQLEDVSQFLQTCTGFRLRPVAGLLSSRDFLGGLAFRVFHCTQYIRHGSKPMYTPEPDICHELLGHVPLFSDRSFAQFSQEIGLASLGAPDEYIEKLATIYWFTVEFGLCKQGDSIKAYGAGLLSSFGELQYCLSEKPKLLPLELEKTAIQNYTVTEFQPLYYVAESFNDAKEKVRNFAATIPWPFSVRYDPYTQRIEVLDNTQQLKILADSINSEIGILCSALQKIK
Test: Cell Based Phenylalanine Flux Assay;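 note: Ten-point dose curve from 2-fold serial dilutions, run in duplicate at 0.5% DMSO final, tracer step used 20 µM sepiapterin and 800 µM labeled phenylalanine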
Set-up: scale not given here
Settings: A375 cells expressing R408W PAH; 24 hrs with compound, then 20 μM sepiapterin and 800 μM 13C9,15N-Phenylalanine for 4 hours; 13C-Tyrosine in media by LC-MS; average where tested multiple times

AC50	Structure (SMILES)
E, E	COc1cccn2nc(C3c4nc[nH]c4CCN3C(=O)c3ncnn3C)cc12 (centres unmarked)

Same assay, conditions: A375 cells expressing R408W PAH; 24 hrs with compound, then 20 μM sepiapterin and 800 μM 13C9,15N-Phenylalanine for 4 hours; 13C-Tyrosine in media by LC-MS; average where tested multiple times; read-out: AC50

Structure (SMILES)	AC50 [nM]
O=C(Cc1cnn2ccccc12)N1CCc2[nH]cnc2[C@H]1c1cc2ccccn2n1 (single isomer, unassigned)	1000 to 5000
O=C(c1nnc(-c2cc[nH]n2)o1)N1CCc2[nH]cnc2C1c1cc2ccccn2n1 (centres unmarked)	1000 to 5000
Cc1cccn2nc([C@@H]3c4nc[nH]c4CCN3c3cccc(F)n3)cc12 (single isomer, unassigned)	1000 to 5000
Cc1nnc(C(=O)N2CCc3[nH]cnc3[C@@H]2c2cc3cccc(C)n3n2)o1 (single isomer, unassigned)	> 5000
FC1(F)CC(c2nnc(N3CCc4[nH]cnc4C3c3cc4ccccn4n3)o2)C1 (single isomer, unassigned) [4S enantiomer of 2-(3,3-difluorocyclobutyl)-5-[4-{pyrazolo{1]	> 5000
FC(F)c1cccn2nc([C@H]3c4nc[nH]c4CCN3c3nnc(-c4cccnc4)o3)cc12 (single isomer, unassigned)	> 5000
COc1cccn2nc([C@@H]3c4nc[nH]c4CCN3C(=O)c3nnc(-c4cnn(C(F)(F)F)c4)o3)cc12 (single isomer, unassigned)	1000 to 5000

Same assay, conditions: A375 cells expressing human R408W PAH; 24 hrs compound incubation; 13C-Tyrosine by LC-MS; average where tested multiple times; read-out: AC50

Structure (SMILES)	AC50 [nM]
O=C(c1oc(C2(O)CC2)nc1C(F)F)N1CCc2[nH]cnc2[C@@H]1c1cc2c(Cl)cccn2n1 [Example 705, (R)-(4-(4-chloropyrazolo [1,5-a]pyridin-2-yl)-6,7-dihydro-1H-imidazo[4,5-c]pyridin-5(4H)-yl)(4-(difluoromethyl)-2-(1-hydroxycyclopropyl)oxazol-5-yl)methanone]	1000 to 5000
Cn1ccc(-c2nnc(C(=O)N3CCc4[nH]cnc4[C@@H]3c3cc4cccc(C(F)(F)F)n4n3)o2)n1 [Example 1031, (R)-(5-(1-methyl-1H-pyrazol-3-yl)-1,3,4-oxadiazol-2-yl)(4-(7-(trifluoromethyl)pyrazolo[1,5-a]pyridin-2-yl)-6,7-dihydro-1H-imidazo [4,5-c]pyridin-5(4H)-yl)methanone]	> 5000
Cc1c(-c2nnc(C(=O)N3CCc4[nH]cnc4[C@@H]3c3cc4c(C(F)F)cccn4n3)o2)cnn1C [Example 1349]	> 5000
Cn1nc(C(F)F)cc1C(=O)N1CCc2[nH]cnc2[C@@H]1c1cc2c(C(F)F)cccn2n1 [Example 1373, (R)-(3-(difluoromethyl)-1-methyl-1H-pyrazol-5-yl)(4-(4-(difluoromethyl)pyrazolo [1,5-a]pyridin-2-yl)-6,7-dihydro-1H-imidazo[4,5-c]pyridin-5(4H)-yl)methanone]	1000 to 5000
CC(C)(O)c1nc(C(F)F)c(C(=O)N2CCc3[nH]cnc3[C@@H]2c2cc3ccc(C(F)(F)F)cn3n2)o1 [Example 1117, (R)-(4-(difluoromethyl)-2-(2-hydroxypropan-2-yl)oxazol-5-yl)(4-(6-(trifluoromethyl)pyrazolo[1,5-a]pyridin-2-yl)-6,7-dihydro-1H-imidazo[4,5-c]pyridin-5(4H)-yl)methanone]	> 5000
Cc1ncoc1C(=O)N1CCc2[nH]cnc2[C@@H]1c1cc2cccc(C(F)(F)F)n2n1 [Example 1199]	1000 to 5000

Further lines, results first:

AC50 [nM]	Structure (SMILES)
< 500	Cc1nc(C(C)(C)F)oc1C(=O)N1CCc2[nH]cnc2[C@H]1c1cc2cccc(C(F)(F)F)n2n1 [Example 1265, (S)-(2-(2-fluoropropan-2-yl)-4-methyloxazol-5-yl)(4-(7-(trifluoromethyl)pyrazolo [1,5-a]pyridin-2-yl)-6,7-dihydro-1H-imidazo[4,5-c]pyridin-5(4H)-yl)methanone]
> 5000	Cc1cccc2cc([C@H]3c4nc[nH]c4CCN3C(=O)c3nnc(-c4ccccn4)o3)nn12 [Example 799, (R)-(4-(7-methylpyrazolo [1,5-a]pyridin-2-yl)-6,7-dihydro-1H-imidazo[4,5-c]pyridin-5(4H)-yl)(5-(pyridin-2-yl)-1,3,4-oxadiazol-2-yl) methanone]
500 to 1000	O=C(c1nnc(C2CC2)o1)N1CCc2[nH]cnc2[C@H]1c1cc2cccc(Cl)n2n1 [Example 1137]
1000 to 5000	Cn1ccc(-c2nnc(C(=O)N3CCc4[nH]cnc4[C@H]3c3cc4ccccn4n3)o2)n1 [Example 658, (S)-(5-(1-methyl-1H-pyrazol-3-yl)-1,3,4-oxadiazol-2-yl)(4-(pyrazolo[1,5-a]pyridin-2-yl)-6,7-dihydro-1H-imidazo[4,5-c]pyridin-5(4H)-yl)methanone]
< 500	Cc1cccn2nc([C@@H]3c4nc[nH]c4CCN3C(=O)c3cc(C(F)F)nn3C)cc12 [Example 867, (S)-(3-(difluoromethyl)-1-methyl-1H-pyrazol-5-yl)(4-(4-methylpyrazolo[1,5-a]pyridin-2-yl)-6,7-dihydro-1H-imidazo[4,5-c]pyridin-5(4H)-yl)methanone]
> 5000	Cc1cccn2nc([C@H]3c4nc[nH]c4CCN3C(=O)c3nnc(C(C)(C)C)o3)cc12 [Example 1023, (R)-(5-(tert-butyl)-1,3,4-oxadiazol-2-yl)(4-(4-methylpyrazolo[1,5-a]pyridin-2-yl)-6,7-dihydro-1H-imidazo[4,5-c]pyridin-5(4H)-yl)methanone]
< 500	Cc1cccc2cc([C@@H]3c4nc[nH]c4CCN3C(=O)c3nnc(-c4ncccc4F)o3)nn12 [Example 912, (S)-(5-(3-fluoropyridin-2-yl)-1,3,4-oxadiazol-2-yl)(4-(7-methylpyrazolo[1,5-a]pyridin-2-yl)-6,7-dihydro-1H-imidazo[4,5-c]pyridin-5(4H)-yl)methanone]

Same assay, conditions: A375 cells expressing human R408W PAH; 24 hrs with compound, then sepiapterin and 13C9,15N-Phenylalanine for 4 hours; 13C-Tyrosine by LC-MS; average where tested multiple times; read-out: AC50

Structure (SMILES)	AC50 [nM]
Cc1cccc(-c2nnc(C(=O)N3CCc4[nH]cnc4[C@@H]3c3cc4c(C)cccn4n3)o2)n1 [Example 1428, (R)-(4-(4-methylpyrazolo [1,5-a]pyridin-2-yl)-6,7-dihydro-1H-imidazo[4,5-c]pyridin-5(4H)-yl)(5-(6-methylpyridin-2-yl)-1,3,4-oxadiazol-2-yl)methanone]	> 5000
Cc1cccc(-c2nnc(N3CCc4[nH]cnc4[C@@H]3c3cc4c(C)cccn4n3)o2)n1 [Example 2344]	> 5000
Cc1cccn2nc([C@@H]3c4nc[nH]c4CCN3c3nnc(-c4cccc(F)n4)o3)cc12 [Example 2361, (S)-2-(6-fluoropyridin-2-yl)-5-(4-(4-methylpyrazolo[1,5-a]pyridin-2-yl)-1,4,6,7-tetrahydro-5H-imidazo[4,5-c]pyridin-5-yl)-1,3,4-oxadiazole]	< 500

The remaining lines, values ahead:

AC50 [nM]	Structure (SMILES)
1000 to 5000	CC(C)(F)c1nnc(C(=O)N2CCc3[nH]cnc3[C@@H]2c2cc3c(Br)cccn3n2)o1 [Example 1939, (R)-(4-(4-bromopyrazolo [1,5-a]pyridin-2-yl)-1,4,6,7-tetrahydro-5H-imidazo [4,5-c]pyridin-5-yl)(5-(2-fluoropropan-2-yl)-1,3,4-oxadiazol-2-yl)methanone]
1000 to 5000	CC(C)c1nnc(C(=O)N2CCc3[nH]cnc3[C@@H]2c2cc3cccc(Cl)n3n2)o1 [Example 1489, (R)-(4-(7-chloropyrazolo [1,5-a]pyridin-2-yl)-6,7-dihydro-1H-imidazo[4,5-c]pyridin-5(4H)-yl)(5-isopropyl-1,3,4-oxadiazol-2-yl)methanone]
< 500	CC(C)c1nnc(C(=O)N2CCc3[nH]cnc3[C@H]2c2cc3c(Cl)cccn3n2)o1 [Example 1484, (S)-(4-(4-chloropyrazolo [1,5-a]pyridin-2-yl)-6,7-dihydro-1H-imidazo[4,5-c]pyridin-5(4H)-yl)(5-isopropyl-1,3,4-oxadiazol-2-yl)methanone]
500 to 1000	COCc1ccc2c(C(=O)N3CCc4[nH]cnc4[C@H]3c3cc4c(Cl)cccn4n3)cnn2c1 [Example 1650, (S)-(4-(4-chloropyrazolo [1,5-a]pyridin-2-yl)-6,7-dihydro-1H-imidazo [4,5-c]pyridin-5(4H)-yl)(6-(methoxymethyl)pyrazolo [1,5-a]pyridin-3-yl)methanone]
500 to 1000	CC(C)(O)c1ncc(C(=O)N2CCc3[nH]cnc3[C@H]2c2cc3c(Cl)cccn3n2)o1 [Example 2216]
< 500	O=C(c1oc(-c2ccccn2)nc1C1CC1)N1CCc2[nH]cnc2[C@H]1c1cc2c(C(F)(F)F)cccn2n1 [Example 2124, (S)-(4-cyclopropyl-2-(pyridin-2-yl)oxazol-5-yl)(4-(4-(trifluoromethyl)pyrazolo [1,5-a]pyridin-2-yl)-1,4,6,7-tetrahydro-5H-imidazo[4,5-c]pyridin-5-yl)methanone]
1000 to 5000	Clc1cccn2nc([C@H]3c4nc[nH]c4CCN3c3nnc(-c4ccccn4)o3)cc12 [Example 1622, (R)-2-(4-(4-chloropyrazolo [1,5-a]pyridin-2-yl)-6,7-dihydro-1H-imidazo[4,5-c]pyridin-5(4H)-yl)-5-(pyridin-2-yl)-1,3,4-oxadiazole]
< 500	Cc1cccn2nc([C@@H]3c4nc[nH]c4CCN3C(=O)c3nc(C(F)F)nn3C)cc12 [Example 2214, (S)-(3-(difluoromethyl)-1-methyl-1H-1,2,4-triazol-5-yl)(4-(4-methylpyrazolo[1,5-a]pyridin-2-yl)-6,7-dihydro-1H-imidazo[4,5-c]pyridin-5(4H)-yl)methanone]

From US12673961B2 (Agios Pharmaceuticals, Inc., priority 2022, dated 2026)
